Measurements as given in patent publication US9469616B2, “Cyclic compounds and methods of making and using the same” (Cellceutix Corporation, priority 2011, dated 2016).
In brackets after ≈: the same amount, converted by molar mass.

Columns and labels:
Assay type in all cases: cell-based
K. pneumoniae (13883) = experiment: MIC assay (Table 1); conditions: Klebsiella pneumoniae, isolate 13883, read-out: MIC50 K. Pnuemnoiae
Description: (§1) The compounds are screened for antimicrobial activity against a number of clinically relevant pathogens. Minimum Inhibitory Concentrations (MIC) of each of the compounds are determined using standard procedures for clinical ocular isolates of Ciprofloxacin Susceptible (CS) S. aureus (CSSA), Ciprofloxacin Resistant (CR) S. aureus (CRSA), CS S. epidermidis (CSSE), CR S. epidermidis (CRSE), St. pneumoniae (SP), St. viridans group (SV), Moraxella Species (MS) (including Moraxella catarrhalis), H. influenzae (HI), P. aeruginosa (PA), Serratia marcescens (SM), S. aureus fluoroquinolone-susceptible, S. aureus fluoroquinolone-resistant, S. epidermidis (Coagulase-negative Staphylococcus) fluoroquinolone-susceptible, S. epidermidis (Coagulase-negative Staphylococcus) fluoroquinolone-resistant, and Serratia marcescens.
(§2) On the day of testing, a 640 μg/m (1280 μg/m for Serratia marcescens and Pseudomonas aeruginosa) concentration is prepared from a 1% stock solution in 0.01% acetic acid, 0.2% BSA in polypropylene tubes.
(§3) Ten μl of diluted 10× test agents is added to each well of one row of the 96 well polypropylene plates from column 2 to column 12 (column 1 is a control for bacteria alone, with no peptide). […] The same peptide is in each of the 8 rows. One plate contains dilutions of one test agent and 8 bacterial isolates.
(§4) Ninety μl of the bacterial suspensions is dispensed in each well from column 1 to column 12. Each bacterial isolate is placed in one row of a 96 well polypropylene plate containing the test agents. The plates are placed on shaker at 15 minutes at room temperature, and then incubated at 37° C. overnight. MICs are determined visually as the lowest concentration of drug that inhibits visible bacterial growth.
(§5) Data is expressed as MIC50 in μg/ml. The bacterial isolates were as follows: E. coli (25922); S. aureus (27660); E. faecalis (29212); P. aeruginosa (10145); and K. pneumoniae (13883).

E. faecalis (29212) = experiment: MIC assay (Table 1); conditions: Enterococcus faecalis, isolate 29212
Description: as §1, §2, §3, §4, §5

S. aureus (27660) = experiment: MIC assay (Table 1); conditions: Staphylococcus aureus, isolate 27660
P. aeruginosa (10145) = experiment: MIC assay (Table 1); conditions: Pseudomonas aeruginosa, isolate 10145
E. coli (25922) = experiment: MIC assay (Table 1); conditions: Escherichia coli, isolate 25922
NIH/3T3 cells = experiment: Cytotoxicity colorimetric assay; conditions: Mus musculus, NIH3T3, 1 h, one hour incubation in serum-free media
Description: Cytotoxicity of the compounds are evaluated in a colorimetric assay using a transformed human liver cell line (HepG2, HB-8065) and an embryonic mouse cell line (NIH/3T3 cells, CRL-1658). This assay measures the bioreduction of a novel tetrazolium compound to a soluble formazan product by viable cells. HepG2 cells are seeded in 96 well plates at 2×10^4 cells/well in MEM medium with 10% fetal bovine serum (FBS) 24 hours prior to use. NIH/3T3 cells are seeded in 96 well plates at 2×10^4 cells/well in DMEM medium with 10% bovine calf serum (BCS) 24 hours prior to use. Cell monolayers are rinsed in serum-free media and incubated for one hour with a Compound in serum-free media. After incubation, the media is replaced with serum supplemented media and live cells are measured using the Cell Titer 96 Aqueous […] Assay kit (Promega, Madison, Wis.). EC50 values are determined using a four parameter logistic equation: Y=Bottom+(Top−Bottom)/(1+10^((Log EC50−X)*HillSlope)). […] Data is expressed as EC50 in μg/ml. Cytotoxicity is evaluated in a colorimetric assay using a transformed human liver cell line (HepG2, HB-8065) and an embryonic mouse cell line (NIH/3T3 cells, CRL-1658). This assay measures the bioreduction of a novel tetrazolium compound to a soluble formazan product by viable cells. HepG2 cells are seeded in 96 well plates at 3×10^4 cells/well in MEM medium with 10% fetal bovine serum (FBS) 24 hours prior to use. NIH/3T3 cells are seeded in 96 well plates at 2×10^4 cells/well in DMEM medium with 10% bovine calf serum (BCS) 24 hours prior to use. Cell monolayers are rinsed in serum-free media and incubated for one hour with test agent in serum-free media. After incubation, the media is replaced with serum supplemented media and live cells are measured using the Cell Titer 96 Aqueous […] Assay kit (Promega, Madison, Wis.). EC50 values are determined using a four parameter logistic equation: Y=Bottom+(Top−Bottom)/(1+10^((Log EC50−X)*HillSlope)).

HepG2 = experiment: Cytotoxicity colorimetric assay; conditions: Homo sapiens, HepG2, 1 h, one hour incubation in serum-free media
Description: Cytotoxicity of the compounds are evaluated in a colorimetric assay using a transformed human liver cell line (HepG2, HB-8065) and an embryonic mouse cell line (NIH/3T3 cells, CRL-1658). This assay measures the bioreduction of a novel tetrazolium compound to a soluble formazan product by viable cells. HepG2 cells are seeded in 96 well plates at 2×10^4 cells/well in MEM medium with 10% fetal bovine serum (FBS) 24 hours prior to use. NIH/3T3 cells are seeded in 96 well plates at 2×10^4 cells/well in DMEM medium with 10% bovine calf serum (BCS) 24 hours prior to use. Cell monolayers are rinsed in serum-free media and incubated for one hour with a Compound in serum-free media. After incubation, the media is replaced with serum supplemented media and live cells are measured using the Cell Titer 96 Aqueous […] Assay kit (Promega, Madison, Wis.). EC50 values are determined using a four parameter logistic equation: Y=Bottom+(Top−Bottom)/(1+10^((Log EC50−X)*HillSlope)). Actual results from a representative cytotoxicity assay are shown below in Table 3. Data is expressed as EC50 in μg/ml. Cytotoxicity is evaluated in a colorimetric assay using a transformed human liver cell line (HepG2, HB-8065) and an embryonic mouse cell line (NIH/3T3 cells, CRL-1658). This assay measures the bioreduction of a novel tetrazolium compound to a soluble formazan product by viable cells. HepG2 cells are seeded in 96 well plates at 3×10^4 cells/well in MEM medium with 10% fetal bovine serum (FBS) 24 hours prior to use. NIH/3T3 cells are seeded in 96 well plates at 2×10^4 cells/well in DMEM medium with 10% bovine calf serum (BCS) 24 hours prior to use. Cell monolayers are rinsed in serum-free media and incubated for one hour with test agent in serum-free media. After incubation, the media is replaced with serum supplemented media and live cells are measured using the Cell Titer 96 Aqueous […] Assay kit (Promega, Madison, Wis.). EC50 values are determined using a four parameter logistic equation: Y=Bottom+(Top−Bottom)/(1+10^((Log EC50−X)*HillSlope)).

Escherichia coli = experiment: Antimicrobial activity (MIC) of aryl compounds (Table 2)
Text: (§6) A new series of aryl compounds was designed to evaluate the effect of charge and aromatic group hydrophobicity on the biological activity while still maintaining an amphiphilic topology. Four and six cationic charges were investigated, and three different central rings were used to tune the overall hydrophobicity: benzene, naphthalene, and phenylbenzene. The hydrophobicities of the aryl compounds were quantified using reversed-phase HPLC retention times (Rt). The antimicrobial activities (expressed as minimum inhibitory concentration (MIC)) of these compounds were tested against four pathogens, including both Gram-negative and Gram-positive bacteria, and their hemolysis (evaluated in terms of HC50, the lowest concentration that causes 50% hemolysis of red blood cells (RBCs)) was tested against human RBCs.

Staphylococcus aureus = experiment: as above
Text: as §6

SMILES	MIC50 (K. pneumoniae (13883)) [mg/L]	MIC50 (E. faecalis (29212)) [mg/L]	MIC50 (S. aureus (27660)) [mg/L]	MIC50 (P. aeruginosa (10145)) [mg/L]	MIC50 (E. coli (25922)) [mg/L]	EC50 (NIH/3T3 cells) [mg/L]	EC50 (HepG2) [mg/L]	MIC (Escherichia coli; Escherichia coli, Table 2) [mg/L]	Selectivity (HC50/MIC) E. coli (Escherichia coli; HC50/MIC)	Selectivity (HC50/MIC) S. aureus (Staphylococcus aureus; HC50/MIC)	MIC (Staphylococcus aureus; Staphylococcus aureus, Table 2, read-out: MIC S. aureus) [mg/L]
NCCCOc1cc(-c2cn(-c3cc(OCCCN)cc(OCCCN)c3)nn2)cc(-c2cn(-c3cc(OCCCN)cc(OCCCN)c3)nn2)c1 [Compound 105]	> 50	> 50	25 (≈ 34.3 µM)	50 (≈ 68.5 µM)	50 (≈ 68.5 µM)	83.4 (≈ 114 µM)	–	–	–	–	–
NCCCOc1cc(OCCCN)cc(-c2cc(-c3cc(OCCCN)cc(OCCCN)c3)cc(-c3cc4ccccc4[nH]3)c2)c1 [Compound 108]	> 50	12.5 (≈ 19.6 µM)	1.56 (≈ 2.45 µM)	25 (≈ 39.2 µM)	6.25 (≈ 9.8 µM)	–	–	–	–	–	–
NCCCOc1ccc(-n2cc(-c3cccc(-c4cn(-c5ccc(OCCCN)c(OCCCN)c5)nn4)c3)nn2)cc1OCCCN [Compound 101]	> 50	12.5 (≈ 19 µM)	12.5 (≈ 19 µM)	50 (≈ 76.1 µM)	> 50	52.4 (≈ 79.8 µM)	–	–	–	–	–
N=C(N)NCCCOc1cc(OCCCNC(=N)N)cc(-c2cc(-c3ccccc3)cc(-c3cc(OCCCNC(=N)N)cc(OCCCNC(=N)N)c3)c2)c1 [Compound 114]	1.56 (≈ 2.03 µM)	3.13 (≈ 4.08 µM)	0.78 (≈ 1.02 µM)	12.5 (≈ 16.3 µM)	1.56 (≈ 2.03 µM)	33.6 (≈ 43.8 µM)	40.4 (≈ 52.7 µM)	–	–	–	–
NCCCOc1ccc(-n2cc(-c3ccc4ccc(-c5cn(-c6ccc(OCCCN)c(OCCCN)c6)nn5)cc4c3)nn2)cc1OCCCN [Compound 103]	> 50	25 (≈ 35.4 µM)	25 (≈ 35.4 µM)	50 (≈ 70.7 µM)	> 50	32.7 (≈ 46.3 µM)	55.5 (≈ 78.5 µM)	–	–	–	–
NCCCOc1cc(-c2cn(-c3cccc(OCCCN)c3)nn2)cc(-c2cn(-c3cccc(OCCCN)c3)nn2)c1 [Compound 107]	> 50	25 (≈ 42.8 µM)	50 (≈ 85.7 µM)	25 (≈ 42.8 µM)	> 50	131 (≈ 224 µM)	–	–	–	–	–
NCCCOc1cc(OCCCN)cc(-n2cc(-c3ccc4ccc(-c5cn(-c6cc(OCCCN)cc(OCCCN)c6)nn5)cc4c3)nn2)c1 [Compound 102]	50 (≈ 70.7 µM)	25 (≈ 35.4 µM)	12.5 (≈ 17.7 µM)	> 50	> 50	36.1 (≈ 51.1 µM)	48.4 (≈ 68.5 µM)	–	–	–	–
N=C(N)NCCCOc1cc(-c2cn(-c3cc(OCCCNC(=N)N)cc(OCCCNC(=N)N)c3)nn2)cc(-c2cn(-c3cc(OCCCNC(=N)N)cc(OCCCNC(=N)N)c3)nn2)c1 [Compound 100]	> 50	25 (≈ 26.6 µM)	50 (≈ 53.2 µM)	> 50	50 (≈ 53.2 µM)	23.2 (≈ 24.7 µM)	48.6 (≈ 51.7 µM)	–	–	–	–
Cc1ccc(-c2cc(-c3cc(OCCCN)cc(OCCCN)c3)cc(-c3cc(OCCCN)cc(OCCCN)c3)c2)cc1 [Compound 110]	6.25 (≈ 10.2 µM)	1.56 (≈ 2.55 µM)	0.78 (≈ 1.27 µM)	25 (≈ 40.8 µM)	3.13 (≈ 5.11 µM)	129 (≈ 211 µM)	–	–	–	–	–
N=C(N)NCCCOc1cc(-c2cn(-c3cccc(OCCCNC(=N)N)c3)nn2)cc(-c2cn(-c3cccc(OCCCNC(=N)N)c3)nn2)c1 [Compound 106]	> 50	50 (≈ 70.4 µM)	1.56 (≈ 2.2 µM)	50 (≈ 70.4 µM)	25 (≈ 35.2 µM)	191 (≈ 269 µM)	–	–	–	–	–
N=C(N)NCCCOc1cc(OCCCNC(=N)N)cc(-c2cccc(-c3cc(OCCCNC(=N)N)cc(OCCCNC(=N)N)c3)c2)c1 [Compound 109]	6.25 (≈ 9.05 µM)	1.56 (≈ 2.26 µM)	0.4 (≈ 0.579 µM)	12.5 (≈ 18.1 µM)	1.56 (≈ 2.26 µM)	69 (≈ 99.9 µM)	–	–	–	–	–
N=C(N)NCCCOc1cc(OCCCNC(=N)N)cc(-c2ccc3ccc(-c4cc(OCCCNC(=N)N)cc(OCCCNC(=N)N)c4)cc3c2)c1 [Compound 117]	1.56 (≈ 2.11 µM)	0.78 (≈ 1.05 µM)	1.56 (≈ 2.11 µM)	12.5 (≈ 16.9 µM)	1.56 (≈ 2.11 µM)	31.6 (≈ 42.7 µM)	–	–	–	–	–
N=C(N)NCCCOc1ccc(-n2cc(-c3ccc4ccc(-c5cn(-c6ccc(OCCCNC(=N)N)c(OCCCNC(=N)N)c6)nn5)cc4c3)nn2)cc1OCCCNC(=N)N [Compound 104]	> 50	25 (≈ 28.6 µM)	25 (≈ 28.6 µM)	50 (≈ 57.1 µM)	> 50	34.7 (≈ 39.7 µM)	54 (≈ 61.7 µM)	–	–	–	–
NCCCOc1cc(C#Cc2ccc3ccc(C#Cc4cc(OCCCN)cc(OCCCN)c4)cc3c2)cc(OCCCN)c1 [Compound 120]	6.25 (≈ 10.1 µM)	1.56 (≈ 2.51 µM)	3.13 (≈ 5.04 µM)	6.25 (≈ 10.1 µM)	3.13 (≈ 5.04 µM)	15.2 (≈ 24.5 µM)	36.4 (≈ 58.6 µM)	–	–	–	–
NCCCOc1cc(OCCCN)cc(-c2cccc(-c3cc(OCCCN)cc(OCCCN)c3)c2)c1 [Compound 111]	> 50	50 (≈ 95.7 µM)	12.5 (≈ 23.9 µM)	> 50	50 (≈ 95.7 µM)	814 (≈ 1560 µM)	> 1020	50 (≈ 95.7 µM)	>20	>80	12.5 (≈ 23.9 µM)
CC(C)(C)c1ccc(-c2cc(-c3cc(OCCCN)cc(OCCCN)c3)cc(-c3cc(OCCCN)cc(OCCCN)c3)c2)cc1 [Compound 113]	3.13 (≈ 4.78 µM)	1.56 (≈ 2.38 µM)	1.56 (≈ 2.38 µM)	12.5 (≈ 19.1 µM)	3.13 (≈ 4.78 µM)	99.5 (≈ 152 µM)	–	–	–	–	–
